Laboratory results taken from ChEMBL document CHEMBL3046517, “Synthesis and antimicrobial study of fluoroquinolone-based 4-thiazolidinones” (2010).
Values after ≈ are worked out from the molar mass of the structure shown. Active and inactive are the calls of the source. The calls are words filed in the database; no cut-off is given here.

Legend:
Type in all cases: functional
[1] = test system: Candida albicans; test: Antifungal activity against Candida albicans by broth dilution method
[2] = test system: Streptococcus pyogenes; test: Antibacterial activity against Streptococcus pyogenes by broth dilution method
[3] = test system: Escherichia coli; test: Antibacterial activity against Escherichia coli by broth dilution method
[4] = test system: Staphylococcus aureus; test: Antibacterial activity against Staphylococcus aureus by broth dilution method
[5] = test system: Pseudomonas aeruginosa; test: Antibacterial activity against Pseudomonas aeruginosa by broth dilution method
[6] = test system: Aspergillus niger; test: Antifungal activity against Aspergillus niger by broth dilution method
[7] = test system: Aspergillus clavatus; test: Antifungal activity against Aspergillus clavatus by broth dilution method

`O=C(Cl)c1cn(C2CC2)c2cc(Cl)c(F)cc2c1=O` was tested, and the Activity [1] was “Active”, the Activity [2] was “Active” and the Activity [3] was “Active”. For the same compound, the Activity [4] was “Active” and the Activity [5] was “Active”.
Work on `COc1ccc(N2CCN(c3cc4c(cc3F)c(=O)c(C(=O)N/N=C\c3ccc(F)cc3)cn4C3CC3)CC2)cc1` yielded an MIC [1] of 500 µg/mL (≈ 897 µM), an MIC [6] of 500 µg/mL (≈ 897 µM) and an MIC [2] of 500 µg/mL (≈ 897 µM). It also gave an MIC [3] of 250 µg/mL (≈ 448 µM), an MIC [7] of 500 µg/mL (≈ 897 µM) and an MIC [4] of 500 µg/mL (≈ 897 µM). The MIC [5] was 500 µg/mL (≈ 897 µM).
`COc1ccc(N2CCN(c3cc4c(cc3F)c(=O)c(C(=O)NN3C(=O)CSC3c3ccc(O)c(OC)c3)cn4C3CC3)CC2)cc1` (configuration not stated) gave an MIC [1] of 500 µg/mL (≈ 758 µM), an MIC [6] of over 1000 µg/mL and an MIC [2] of 1000 µg/mL (≈ 1520 µM). It also gave an MIC [3] of 1000 µg/mL (≈ 1520 µM), an MIC [7] of 1000 µg/mL (≈ 1520 µM) and an MIC [4] of 1000 µg/mL (≈ 1520 µM). The MIC [5] was 1000 µg/mL (≈ 1520 µM).
`COc1ccc(N2CCN(c3cc4c(cc3F)c(=O)c(C(=O)NN3C(=O)CSC3c3ccccc3)cn4C3CC3)CC2)cc1` (configuration not stated) was tested, and the MIC [1] was 1000 µg/mL (≈ 1630 µM), the MIC [6] was 500 µg/mL (≈ 815 µM) and the MIC [2] was 1000 µg/mL (≈ 1630 µM). It also gave an MIC [3] of 1000 µg/mL (≈ 1630 µM), an MIC [7] of 500 µg/mL (≈ 815 µM) and an MIC [4] of 500 µg/mL (≈ 815 µM). It also gave an MIC [5] of 200 µg/mL (≈ 326 µM).
With `COc1ccc(/C=N\NC(=O)c2cn(C3CC3)c3cc(Cl)c(F)cc3c2=O)cc1` the MIC [1] was 500 µg/mL (≈ 1210 µM), the MIC [6] was over 1000 µg/mL and the MIC [2] was 1000 µg/mL (≈ 2420 µM). For the same compound, the MIC [3] was 200 µg/mL (≈ 483 µM), the MIC [7] was over 1000 µg/mL and the MIC [4] was 500 µg/mL (≈ 1210 µM). For the same compound, the MIC [5] was 500 µg/mL (≈ 1210 µM).
`COc1ccc(N2CCN(c3cc4c(cc3F)c(=O)c(C(=O)N/N=C\c3ccc(Cl)cc3)cn4C3CC3)CC2)cc1` gave an MIC [1] of 1000 µg/mL (≈ 1740 µM), an MIC [6] of 1000 µg/mL (≈ 1740 µM) and an MIC [2] of 500 µg/mL (≈ 871 µM). For the same compound, the MIC [3] was 1000 µg/mL (≈ 1740 µM), the MIC [7] was 1000 µg/mL (≈ 1740 µM) and the MIC [4] was 1000 µg/mL (≈ 1740 µM). For the same compound, the MIC [5] was 1000 µg/mL (≈ 1740 µM).
With `O=C(N/N=C\c1ccccc1Cl)c1cn(C2CC2)c2cc(Cl)c(F)cc2c1=O` the MIC [1] was 1000 µg/mL (≈ 2390 µM), the MIC [6] was 500 µg/mL (≈ 1200 µM) and the MIC [2] was 100 µg/mL (≈ 239 µM). It also gave an MIC [3] of 50 µg/mL (≈ 120 µM), an MIC [7] of 500 µg/mL (≈ 1200 µM) and an MIC [4] of 200 µg/mL (≈ 478 µM). It also gave an MIC [5] of 100 µg/mL (≈ 239 µM).
With `COc1ccc(/C=N\NC(=O)c2cn(C3CC3)c3cc(N4CCN(c5ccc(OC)cc5)CC4)c(F)cc3c2=O)cc1` the MIC [1] was 500 µg/mL (≈ 878 µM), the MIC [6] was over 1000 µg/mL and the MIC [2] was 100 µg/mL (≈ 176 µM). The MIC [3] was 100 µg/mL (≈ 176 µM), the MIC [7] was over 1000 µg/mL and the MIC [4] was 500 µg/mL (≈ 878 µM). The MIC [5] was 200 µg/mL (≈ 351 µM).
NYSTATIN gave an MIC [1] of 100 µg/mL, an MIC [6] of 100 µg/mL and an MIC [7] of 100 µg/mL.
With `COc1ccc(N2CCN(c3cc4c(cc3F)c(=O)c(C(=O)N/N=C\c3ccccc3Cl)cn4C3CC3)CC2)cc1` the MIC [1] was 500 µg/mL (≈ 871 µM), the MIC [6] was over 1000 µg/mL and the MIC [2] was 100 µg/mL (≈ 174 µM). The MIC [3] was 100 µg/mL (≈ 174 µM), the MIC [7] was over 1000 µg/mL and the MIC [4] was 500 µg/mL (≈ 871 µM). It also gave an MIC [5] of 100 µg/mL (≈ 174 µM).
Work on `NNC(=O)c1cn(C2CC2)c2cc(Cl)c(F)cc2c1=O` yielded an MIC [1] of 200 µg/mL (≈ 676 µM), an MIC [6] of 500 µg/mL (≈ 1690 µM) and an MIC [2] of 500 µg/mL (≈ 1690 µM). The MIC [3] was 500 µg/mL (≈ 1690 µM), the MIC [7] was 500 µg/mL (≈ 1690 µM) and the MIC [4] was 500 µg/mL (≈ 1690 µM). For the same compound, the MIC [5] was 500 µg/mL (≈ 1690 µM).
For `COc1cc(/C=N\NC(=O)c2cn(C3CC3)c3cc(Cl)c(F)cc3c2=O)ccc1O`, the MIC [1] was 100 µg/mL (≈ 233 µM), the MIC [6] was 500 µg/mL (≈ 1160 µM) and the MIC [2] was 500 µg/mL (≈ 1160 µM). It also gave an MIC [3] of 100 µg/mL (≈ 233 µM), an MIC [7] of 1000 µg/mL (≈ 2330 µM) and an MIC [4] of 200 µg/mL (≈ 465 µM). It also gave an MIC [5] of 200 µg/mL (≈ 465 µM).
`O=C(N/N=C\c1ccccc1[N+](=O)[O-])c1cn(C2CC2)c2cc(Cl)c(F)cc2c1=O` gave an MIC [1] of 500 µg/mL (≈ 1170 µM), an MIC [6] of 1000 µg/mL (≈ 2330 µM) and an MIC [2] of 200 µg/mL (≈ 466 µM). The MIC [3] was 500 µg/mL (≈ 1170 µM), the MIC [7] was over 1000 µg/mL and the MIC [4] was 100 µg/mL (≈ 233 µM). For the same compound, the MIC [5] was 200 µg/mL (≈ 466 µM).
With `O=C(N/N=C\c1cccc([N+](=O)[O-])c1)c1cn(C2CC2)c2cc(Cl)c(F)cc2c1=O` the MIC [1] was 1000 µg/mL (≈ 2330 µM), the MIC [6] was 1000 µg/mL (≈ 2330 µM) and the MIC [2] was 1000 µg/mL (≈ 2330 µM). It also gave an MIC [3] of 200 µg/mL (≈ 466 µM), an MIC [7] of over 1000 µg/mL and an MIC [4] of 1000 µg/mL (≈ 2330 µM). The MIC [5] was 200 µg/mL (≈ 466 µM).
With `COc1ccc(N2CCN(c3cc4c(cc3F)c(=O)c(C(=O)NN3C(=O)CSC3c3ccccc3O)cn4C3CC3)CC2)cc1` (configuration not stated) the MIC [1] was 500 µg/mL (≈ 794 µM), the MIC [6] was 1000 µg/mL (≈ 1590 µM) and the MIC [2] was 500 µg/mL (≈ 794 µM). The MIC [3] was 500 µg/mL (≈ 794 µM), the MIC [7] was 1000 µg/mL (≈ 1590 µM) and the MIC [4] was 500 µg/mL (≈ 794 µM). It also gave an MIC [5] of 1000 µg/mL (≈ 1590 µM).
For `O=C(O)c1cn(C2CC2)c2cc(N3CCNCC3)c(F)cc2c1=O` [CIPROFLOXACIN], the MIC [2] was 50 µg/mL (≈ 151 µM), the MIC [3] was 25 µg/mL (≈ 75.4 µM) and the MIC [4] was 50 µg/mL (≈ 151 µM).
`O=C(N/N=C\c1ccc(O)cc1)c1cn(C2CC2)c2cc(Cl)c(F)cc2c1=O` gave an MIC [1] of 500 µg/mL (≈ 1250 µM), an MIC [6] of 500 µg/mL (≈ 1250 µM) and an MIC [2] of 500 µg/mL (≈ 1250 µM). It also gave an MIC [3] of 500 µg/mL (≈ 1250 µM), an MIC [7] of 500 µg/mL (≈ 1250 µM) and an MIC [4] of 500 µg/mL (≈ 1250 µM). It also gave an MIC [5] of 500 µg/mL (≈ 1250 µM).
In the case of `COc1ccc(N2CCN(c3cc4c(cc3F)c(=O)c(C(=O)NN3C(=O)CSC3c3ccccc3[N+](=O)[O-])cn4C3CC3)CC2)cc1` (configuration not stated), the MIC [1] is reported as 1000 µg/mL (≈ 1520 µM), the MIC [6] is reported as 1000 µg/mL (≈ 1520 µM) and the MIC [2] is reported as 500 µg/mL (≈ 759 µM). The MIC [3] was 500 µg/mL (≈ 759 µM), the MIC [7] was 1000 µg/mL (≈ 1520 µM) and the MIC [4] was 200 µg/mL (≈ 304 µM). The MIC [5] was 100 µg/mL (≈ 152 µM).
`CC1(C)S[C@@H]2[C@H](NC(=O)[C@H](N)c3ccccc3)C(=O)N2[C@H]1C(=O)O` [AMPICILLIN] showed an MIC [2] of 100 µg/mL (≈ 286 µM), an MIC [3] of 100 µg/mL (≈ 286 µM) and an MIC [4] of 250 µg/mL (≈ 715 µM). It also gave an MIC [5] of 100 µg/mL (≈ 286 µM).
`COc1ccc(N2CCN(c3cc4c(cc3F)c(=O)c(C(=O)N/N=C\c3ccccc3[N+](=O)[O-])cn4C3CC3)CC2)cc1` showed an MIC [1] of 1000 µg/mL (≈ 1710 µM), an MIC [6] of 1000 µg/mL (≈ 1710 µM) and an MIC [2] of 150 µg/mL (≈ 257 µM). The MIC [3] was 50 µg/mL (≈ 85.5 µM), the MIC [7] was 1000 µg/mL (≈ 1710 µM) and the MIC [4] was 150 µg/mL (≈ 257 µM). The MIC [5] was 100 µg/mL (≈ 171 µM).
